One experiment has as its target T1, human DP1 receptor (Homo sapiens, UniProt Q13258).
T1 construct: tissue Biological Specialty Corporation; host or cells: human platelets, membrane preparation
T1 sequence (Q13258 1-359): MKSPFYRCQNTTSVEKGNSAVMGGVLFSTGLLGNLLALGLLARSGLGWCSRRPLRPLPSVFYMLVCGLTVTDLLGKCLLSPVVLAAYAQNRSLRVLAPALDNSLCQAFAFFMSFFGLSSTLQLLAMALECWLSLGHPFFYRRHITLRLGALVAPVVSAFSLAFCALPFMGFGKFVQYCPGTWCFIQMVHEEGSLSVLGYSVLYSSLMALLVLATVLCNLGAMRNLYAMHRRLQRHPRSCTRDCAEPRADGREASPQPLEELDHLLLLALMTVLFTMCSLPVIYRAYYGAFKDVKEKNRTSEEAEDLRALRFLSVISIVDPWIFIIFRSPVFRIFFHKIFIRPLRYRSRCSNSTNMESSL
The experiment can be described thus: DP1 binding assay ([3H]BWA868C radioligand). The following applies: human platelet membranes, 2 nM [3H]BWA868C; read-out: hDP1. Here is the method: The ability of a compound to bind to the human DP1 receptor was evaluated via a radioligand membrane binding assay using the DP1 selective synthetic ligand [^3H]BWA868C. Packed human platelets (Biological Specialty Corporation), were resuspended in 6 volumes of Hepes/HBSS buffer (10 mM Hepes, 1 mM DTT in Hanks Balanced Salt Solution (HBSS), lysed and centrifuged at 75,000×g to pellet the membranes. Membranes were resuspended in Hepes/HBSS buffer to approximately 12 mg protein/ml. Membranes (20 μg protein/well) are incubated in 96-well plates with 2 nM [^3H]BWA868C and test compound in Assay Buffer (50 mM Hepes, 10 mM MnCl2, 1 mM EDTA, plus or minus 0.2% human serum albumin, pH 7.4) for 60 minutes at room temperature. The reactions are terminated by rapid filtration through Whatman GF/C glass fibre filter plates. The filter plates were pre-soaked in 0.33% polethylenimine for 30 minutes at room temperature then washed in Wash Buffer (50 mM Hepes, 0.5 M NaCl pH 7.4) prior to harvesting. After harvesting, the filter plates are washed 3 times with 1 ml cold Wash Buffer then dried. Scintillant is then added to the plates and the radioactivity retained on the filters is determined on a Packard TopCount (Perkin Elmer). Specific binding is determined as total radioactive binding minus non-specific binding in the presence of 10 μM BW A868C. IC50s were determined using GraphPad prism analysis of drug titration curves.

For another experiment, the target named is T2, human DP2 receptor (Homo sapiens, UniProt Q9Y5Y4).
T2 construct: expressed in transfected cells
T2 sequence (Q9Y5Y4 1-395): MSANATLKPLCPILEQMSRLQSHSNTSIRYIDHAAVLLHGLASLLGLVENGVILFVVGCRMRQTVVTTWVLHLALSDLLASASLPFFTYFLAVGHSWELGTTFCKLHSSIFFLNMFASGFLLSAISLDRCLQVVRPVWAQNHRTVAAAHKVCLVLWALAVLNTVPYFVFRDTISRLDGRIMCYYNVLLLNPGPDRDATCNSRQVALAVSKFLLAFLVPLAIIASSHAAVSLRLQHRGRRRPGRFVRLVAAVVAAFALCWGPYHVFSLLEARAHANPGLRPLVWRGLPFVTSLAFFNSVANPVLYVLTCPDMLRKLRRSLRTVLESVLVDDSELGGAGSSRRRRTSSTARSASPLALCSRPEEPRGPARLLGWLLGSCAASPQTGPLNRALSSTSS
The experiment can be described thus: DP2/CRTH2 binding assay ([3H]PGD2 radioligand). The following applies: membranes of HEK293 cells expressing recombinant human DP2, 1 nM [3H]PGD2; read-out: hDP2. The protocol:
The ability of a compound to bind to the human DP2 receptor is assessed via a radioligand binding assay using [^3H]PGD2. HEK293 cells stably expressing recombinant human DP2 are resuspended in 10 mM Hepes, 7.4 containing 1 mM DTT, lysed and centrifuged at 75,000×g to pellet the membranes. The membranes are resuspended in 10 mM Hepes, 7.4 containing 1 mM DTT and 10% glycerol to approximately 5 mg protein/ml. Membranes (2-10 μg protein/well) are incubated in 96-well plates with 1 nM [^3H]PGD2 and test compound in Assay Buffer (50 mM Hepes, 10 mM MnCl2, 1 mM EDTA, plus or minus 0.2% human serum albumin, pH 7.4) for 60 minutes at room temperature. The reactions are terminated by rapid filtration through Whatman GF/C glass fibre filter plates. The filter plates were pre-soaked in 0.33% polythylenimine for 30 minutes at room temperature then washed in Wash Buffer (50 mM Hepes, 0.5 M NaCl pH 7.4) prior to harvesting. After harvesting, the filter plates are washed 3 times with 1 ml cold Wash Buffer then dried. Scintillant is then added to the plates and the radioactivity retained on the filters is determined on a Packard TopCount (Perkin Elmer). Specific binding is determined as total radioactive binding minus non-specific binding in the presence of 10 μM PGD2. IC50s were determined using GraphPad prism analysis of drug titration curves.

A value given as a limit tells only on which side of the number the result lay.

Turning to `COc1ccc(CC(=O)O)cc1Oc1ccc(NC(=O)C(C)(C)C)cc1CSCC(F)(F)F` [Compound 2, {3-[4-(2,2-dimethyl-propionylamino)-2-(2,2,2-trifluoro-ethylsulfanylmethyl)-phenoxy]-4-methoxy-phenyl}-acetic acid], the IC50 is greater than 1000 nM at human DP1 receptor and less than 300 nM on human DP2 receptor.

`COc1ccc(CC(=O)O)cc1Oc1ccc(NC(=O)C(C)(C)C)cc1CSC(C)(C)C` [Compound 7, {3-[2-tert-Butylsulfanylmethyl-4-(2,2-dimethyl-propionylamino)-phenoxy]-4-methoxy-phenyl}-acetic acid]: the IC50 on human DP1 receptor was greater than 1000 nM; at human DP2 receptor it was less than 300 nM.

Regarding `COc1ccc(CC(=O)O)cc1Oc1ccc(NC(=O)c2ccc(Cl)cc2)cc1CSc1ccccc1` [Compound 17, {3-[4-(4-Chloro-benzoylamino)-2-phenylsulfanylmethyl-phenoxy]-4-methoxy-phenyl}-acetic acid], the figures for the IC50 at human DP1 receptor and on human DP2 receptor were greater than 1000 nM and less than 300 nM, respectively.

With `COc1ccc(CC(=O)O)cc1Oc1ccc(NC(=O)c2ccc(Cl)cc2)cc1CSCc1ccccc1` [Compound 18, {3-[2-Benzylsulfanylmethyl-4-(4-chloro-benzoylamino)-phenoxy]-4-methoxy-phenyl}-acetic acid], the IC50 on human DP1 receptor and on human DP2 receptor was less than 300 nM in each case.

Turning to `COc1ccc(CC(=O)O)cc1Oc1ccc(NC(=O)c2ccc(Cl)cc2)cc1CSc1nnc(C)s1` [Compound 19, {3-[4-(4-Chloro-benzoylamino)-2-(5-methyl-[1,3,4]thiadiazol-2-ylsulfanylmethyl)-phenoxy]-4-methoxy-phenyl}-acetic acid], the IC50 is greater than 1000 nM at human DP1 receptor and less than 300 nM on human DP2 receptor.

`CC(C)SCc1cc(NC(=O)C(C)(C)C)ccc1Oc1cc(Cl)cc(CC(=O)O)c1` [Compound 30, {3-Chloro-5-[4-(2,2-dimethyl-propionylamino)-2-isopropylsulfanylmethyl-phenoxy]-phenyl}-acetic acid]: the IC50 was greater than 1000 nM on human DP1 receptor and less than 300 nM at human DP2 receptor.

With `CC(C)(C)C(=O)Nc1ccc(Oc2cc(CC(=O)O)cc(C(F)(F)F)c2)c(CSCC(F)(F)F)c1` [Compound 32, {3-[4-(2,2-Dimethyl-propionylamino)-2-(2,2,2-trifluoro-ethylsulfanylmethyl)-phenoxy]-5-trifluoromethyl-phenyl}-acetic acid], the IC50 at human DP1 receptor is greater than 1000 nM; on human DP2 receptor it was less than 300 nM.

Consider `COc1ccc(CC(=O)O)cc1Oc1ccc(N2CCNC2=O)cc1CSCC(F)(F)F` [Compound 57, {4-Methoxy-3-[4-(2-oxo-imidazolidin-1-yl)-2-(2,2,2-trifluoro-ethylsulfanylmethyl)-phenoxy]-phenyl}-acetic acid], for which the IC50 is greater than 1000 nM on human DP1 receptor and 300 to 1000 nM on human DP2 receptor.

Take `COc1ccc(CC(=O)O)cc1Oc1ccc(NC(=O)c2ccccc2)cc1CSC(C)(C)C` [Compound 58, [3-(4-benzoylamino-2-tert-butylsulfanylmethyl-phenoxy)-4-methoxy-phenyl]-acetic acid]: the IC50 at human DP1 receptor and on human DP2 receptor was less than 300 nM each time.

On to `CC(C)(C)SCc1cc(NC(=O)C(C)(C)C)ccc1Oc1cc(CC(=O)O)ccc1Cl` [Compound 59, {3-[2-tert-Butylsulfanylmethyl-4-(2,2-dimethyl-propionylamino)-phenoxy]-4-chloro-phenyl}-acetic acid], for which the IC50 at human DP1 receptor and on human DP2 receptor was less than 300 nM each time.

On to `CC(C)(C)SCc1cc(NC(=O)c2ccc(Cl)cc2)ccc1Oc1cc(CC(=O)O)ccc1Cl` [Compound 60, {3-[2-tert-Butylsulfanylmethyl-4-(4-chloro-benzoylamino)-phenoxy]-4-chloro-phenyl}-acetic acid], for which the IC50 at human DP1 receptor and on human DP2 receptor was less than 300 nM throughout.

For the molecule `CC(C)C(=O)Nc1ccc(Oc2cc(CC(=O)O)ccc2Cl)c(CSC(C)(C)C)c1` [Compound 61, [3-(2-tert-Butylsulfanylmethyl-4-isobutyrylamino-phenoxy)-4-chloro-phenyl]-acetic acid], the IC50 on human DP1 receptor and at human DP2 receptor was less than 300 nM in each case.

In the case of `COc1ccc(CC(=O)O)cc1Oc1ccc(NC(=O)c2cccc(F)c2)cc1CSC(C)(C)C` [Compound 62, {3-[2-tert-Butylsulfanylmethyl-4-(3-fluoro-benzoylamino)-phenoxy]-4-methoxy-phenyl}-acetic acid], the IC50 on human DP1 receptor and on human DP2 receptor was less than 300 nM in each case.

For `COc1ccc(CC(=O)O)cc1Oc1ccc(NC(=O)c2ccc(F)cc2)cc1CSC(C)(C)C` [Compound 63, {3-[2-tert-Butylsulfanylmethyl-4-(4-fluoro-benzoylamino)-phenoxy]-4-methoxy-phenyl}-acetic acid], the IC50 on human DP1 receptor and on human DP2 receptor was less than 300 nM each time.

As to `COc1ccc(CC(=O)O)cc1Oc1ccc(NC(=O)c2ccccc2F)cc1CSC(C)(C)C` [Compound 64, {3-[2-tert-Butylsulfanylmethyl-4-(2-fluoro-benzoylamino)-phenoxy]-4-methoxy-phenyl}-acetic acid], the IC50 on human DP1 receptor and at human DP2 receptor was less than 300 nM in each case.

As to `COc1ccc(CC(=O)O)cc1Oc1ccc(NC(=O)c2ccc(Cl)cc2Cl)cc1CSC(C)(C)C` [Compound 65, {3-[2-tert-Butylsulfanylmethyl-4-(2,4-dichloro-benzoylamino)-phenoxy]-4-methoxy-phenyl}-acetic acid], the IC50 at human DP1 receptor and at human DP2 receptor was less than 300 nM in each case.

In the case of `COc1ccc(CC(=O)O)cc1Oc1ccc(NC(=O)c2cc(Cl)cc(Cl)c2)cc1CSC(C)(C)C` [Compound 66, {3-[2-tert-Butylsulfanylmethyl-4-(3,5-dichloro-benzoylamino)-phenoxy]-4-methoxy-phenyl}-acetic acid], the IC50 at human DP1 receptor and on human DP2 receptor was less than 300 nM each time.

On to `COc1ccc(CC(=O)O)cc1Oc1ccc(NC(=O)c2cc(F)cc(F)c2)cc1CSC(C)(C)C` [Compound 67, {3-[2-tert-Butylsulfanylmethyl-4-(3,5-difluoro-benzoylamino)-phenoxy]-4-methoxy-phenyl}-acetic acid], for which the IC50 at human DP1 receptor and on human DP2 receptor was less than 300 nM in each case.

Take `COc1ccc(CC(=O)O)cc1Oc1ccc(NC(=O)c2cccc(C(F)(F)F)c2)cc1CSCC(F)(F)F` [Compound 68, {4-methoxy-3-[2-(2,2,2-trifluoro-ethylsulfanylmethyl)-4-(3-trifluoromethyl-benzoylamino)-phenoxy]-phenyl}-acetic acid]: the IC50 at human DP1 receptor and at human DP2 receptor was less than 300 nM each time.

In the case of `COc1ccc(CC(=O)O)cc1Oc1ccc(NC(=O)c2ccc(C(F)(F)F)cc2)cc1CSCC(F)(F)F` [Compound 69, {4-methoxy-3-[2-(2,2,2-trifluoro-ethylsulfanylmethyl)-4-(4-trifluoromethyl-benzoylamino)-phenoxy]-phenyl}-acetic acid], the IC50 at human DP1 receptor and on human DP2 receptor was less than 300 nM throughout.

The record behind these values is US20110144160A1, “Antagonists of Prostaglandin D2 Receptors” (Amira Pharmaceuticals, Inc., priority 2008, published 2011).
